Molecules are shown by their SMILES. Entries after “also recorded” stand apart in the source; their conditions may differ.

Consider three compounds from US20160175292A1, “Antioxidants Having Aromatic Structures Reacting with Superoxide” (priority 2014, published 2016).

In one data set the test system is T cell proliferation. The experiment in a line: In vitro T cell proliferation (FIG. 9). In kind it is cell-based. The text has this:
This is similar to the activity observed with PEG-HCCs.

The subject of a further data set is rat T cells. The experiment in a line: In vitro proliferation of ConA-stimulated rat T cells, micromolar concentration (FIG. 10). In kind it is cell-based. Particulars: rat T cells stimulated with 1 μg/mL ConA. The procedure:
In vitro analysis of EG3-NDI LNA20, EG8-PDI LNA30, and EG8-NDI, labeled LNA38 (which is Compound A in FIG. 4 where n=8) on T cell proliferation based on micromolar concentration was performed. 1 μg/mL ConA (mitogen) was used to stimulate rat T cells. […] Error bars represent variability between replicate wells. Unstimulated cells (left-hand bar) are shown as a negative control. Statistical analysis was performed between stimulated control cells without treatment (“Stimulated” bar) vs. various doses of the different compounds using a one-way ANOVA and Bonferonni post-hoc tests. *P<0.05, ***P<0.001, ****P<0.0001.

Data set [1] is described as follows: Superoxide scavenging assay using nitroblue tetrazolium (NBT) and KO2 (FIG. 11). Format: biochemical. Particulars: NBT added 30 s, 60 s, 120 s, 300 s after KO2; diformazan at 560 nm. The method, then: The antioxidant and buffer/solvent was added to a cuvette, followed by the KO2 solution. After a set time (30 s, 60 s, 120 s, 300 s), NBT was added and the resulting mixture analyzed for the NBT diformazan (λmax=560 nm) by UV-Vis spectroscopy (FIG. 11).
In FIG. 11, PEG-HCCs and p-benzoquinone (pBQ) were also run for comparison.

Data set [2] in a line: Cyclic voltammetry, reduction potential (FIG. 12). Particulars: 50 mM PBS pH 7.4, modified glassy carbon electrode, scan rate 100 mV/s. In kind it is physicochemical. The procedure: FIG. 12 is a cyclic voltometry (“CV”) plot of 50 mM PBS (pH=7.4) bare glassy carbon (GC) working electrode and with modified perylene tetracarboxylic anhydride (PTCA) and HCC. (Scan rate: 100 mV/s).
The triethyleneglycol-PDIs (TEG-PDIs) and TEG-NDIs have been analyzed electrochemically and show similar reduction potentials to the HCCs and PEG-HCCs. Electrochemical investigations of HCCs have placed its reduction at −0.7 V vs. Ag/AgCl, as shown by its broad peak in Plot A below.
Accordingly, the triethyleneglycol-PDIs (TEG-PDIs) and TEG-NDIs have been analyzed electrochemically and shown to have similar reduction potentials to the HCCs and PEG-HCCs. Electrochemical investigations of HCCs have placed its reduction at —0.7 V vs. Ag/AgCl (Plot A). 3,4,9,10-Perylenediimide (PDI) derivatives also have redox potentials˜−0.6 V. 1,4,5,8-Naphthalenediimide (NDI) derivatives show discrete reduction steps in the same region (Plot B).

With `COCCOCCOCCN1C(=O)c2ccc3c4c(ccc(c24)C1=O)C(=O)N(CCOCCOCCOC)C3=O` [LNA20, bis-methoxytriethylene glycol naphthalene diimide], in the data set with T cell proliferation, the “concentrations showing inhibitory effects on T cell proliferation” value was “above 10 μg/mL” and the “effect on T cell proliferation” value was “exhibit an inhibitory effect”. Further, in the data set with rat T cells, the “effect on T cell proliferation” value is recorded as “exhibit an inhibitory effect” and the “relative potency in inhibiting T cell proliferation” value was “most potent”. The “superoxide consumption / reaction with superoxide (reduction of NBT)” value in data set [1] is given as “reacts with superoxide; also recorded: showed activity”.

In the case of `O=C1C=CC(=O)C=C1` [pBQ, p-benzoquinone, reference compound], the “superoxide consumption / reaction with superoxide (reduction of NBT)” value in data set [1] is given as “near complete consumption of superoxide; also recorded: nearly completely consumed”.

`O=C1OC(=O)c2ccc3c4ccc5c6c(ccc(c7ccc1c2c73)c64)C(=O)OC5=O` [perylene tetracarboxylic anhydride] registered a reduction potential in data set [2] of −0.7 V vs. Ag/AgCl.
